# Results: patent US9517265B2, “Methods for the prevention and/or treatment of memory impairment” (The Governing Council of the University of Toronto, priority 2010, dated 2016)
# Entries after “also recorded” stand apart in the source; their conditions may differ. Read-outs that look alike come from different tables or passages of the source.
# Assays:
# [1] = Tail-clamp withdrawal assay (MAC of isoflurane) and recovery of righting reflex; type: in vivo, mice; conditions: for time to self-right after the immobilizing dose of isoflurane: L-655,708 or vehicle pretreatment, n=9; for immobilizing dose (MAC value) of isoflurane: tail-clamp, mice pretreated with L-655,708 0.7 mg/kg s.c. (row L-655,708) or vehicle (row isoflurane), n=17
# Description: The MAC value was calculated as the mean value of these two concentrations.
# [2] = Elevated plus maze; type: in vivo, mice
# Excerpt: Anxiety levels were studied using an elevated plus maze consisting of an acrylic glass apparatus in the shape of a cross (45 cm long×7 cm wide, with a central region of 7 cm×7 cm). Two opposing arms were enclosed with opaque white plastic walls (28 cm high, closed arms), whereas the other two opposing arms were left open (open arms). […] An observer blinded to treatment group recorded the position of each mouse on the maze using Observer software. The time spent in the center and in the open and closed arms were measured over 5 min. In addition, motor activity was quantified to study locomotion.
# [3] = molecular target: T1, α5GABAA receptors (Mus musculus, UniProt P22723+Q8BHJ7); conditions: for memory performance of Gabra5−/− mice (in words) / effect of the anesthetic on recognition memory, wild-type mice (in words): 24 h after anesthesia
# [4] = tested on: α5GABAA receptors; conditions: 1 mg/kg intraperitoneal; cited from earlier work
# [5] = molecular target: α5GABAARs (Mus musculus, UniProt P22723+Q8BHJ7); conditions: WT mice, cited from earlier work
# [6] = molecular target: T1, α5GABAA receptors; assay: Fear conditioning (contextual and cued) after isoflurane anesthesia; type: in vivo, C57BL6/J mice; parameters: from tissue; host or cells: brain of living mice (behavioural tests); conditions: for effect on memory deficit after isoflurane (in words): L-655,708 given before isoflurane; for freezing score to context, short-term memory: tested 30 min after training; for freezing score to auditory tone, short-term memory: tested 90 min after conditioning; for freezing score to auditory tone, long-term memory / freezing score to context, long-term memory: tested 2 days after conditioning
# Description: To prevent hypothermia during anesthesia, the floor of the chamber was warmed with a heating blanket. […] The mouse was then either returned to its home cage and allowed to recover for 24 h (24-h groups) or taken to a holding cage in an adjacent room (1-h groups). For continuity and to ensure that the experimenter who performed the fear-conditioning studies was blinded to the treatment group, mice that were allowed to recover for 24 h were placed back in a heated for 45 min before the behavioral experiments. FIGS. 1A and 1B summarize the time course of the experimental procedures. In FIG. 1A, each stage of the experimental paradigm is represented by chronological boxes and cartoons. Relative time is indicated below the boxes (t=0, start of fear conditioning training). The duration of each stage is inset at the bottom left. […] Four groups of isoflurane-treated subjects were used (1 h recovery+L-655,708; 1 h recovery+vehicle; 24 h recovery+L-655,708; 24 h recovery+vehicle). Two oxygen-control group was used (1 h recovery+L-655,708; 1 h recovery+vehicle). 10 min prior to fear conditioning, subjects were examined in the elevated plus maze (EPM). Subjects were tested for short-term memory (STM) and long-term memory (LTM) of the context and tone.
# Testing of memory function was performed using two fear-conditioning paradigms. These tests study the ability of mice to learn and remember an association between an aversive stimulus (foot shock) and non-aversive or neutral stimuli (environmental context or an auditory cue). […] Each mouse was introduced to the fear conditioning chamber (50 cm wide×15 cm deep×15 cm high, Process Control Fear Conditioning Monitor GmbH 303410, Technical & Scientific Equipment Systems Inc., Chesterfield, Mo.). The chamber was illuminated with an interior overhead light (50 lx) and was equipped with a stainless steel grid floor connected to a constant-current shock generator. Each mouse was allowed to explore the chamber for 3 min before presentation of a pulsating tone (80 dB, 3600 Hz) which persisted for 30 s. The tone was followed immediately by a mild foot shock (0.7 mA for 0.5 s). The mouse was allowed to explore the chamber for a further 30 s after the shock to study post-shock freezing.
# Freezing was scored using Observer software (Noldus Information Technology, Wagoningen, The Netherlands), by an experimenter who was blinded to the treatment groups. Before each new training session, the chamber was cleaned with 70% ethanol to mask and eliminate odors from the previous mouse.
# Short-term memory for contextual learning was probed 30 min after training by re-exposed the mice to the same fear conditioning chamber for […]. Long-term memory for contextual learning was studied 2 days (48 h) after conditioning by re-exposing the mice to the conditioning chamber. Short-term memory for cued learning was determined 90 min after training by first allowing the mice to explore a modified chamber scented with 5% acetic acid and containing a plastic floor and cardboard walls and then after 3 min, re-presenting the tone (2-Hz pulsating tone, 80 dB, 3600 Hz) for 3 min. Non-specific freezing was measured during the exploration of the novel chamber prior to presenting the tone. Freezing scores to study recall were measured during presentation of the tone. Long-term memory for cued learning was determined by introducing the mice into the modified chamber and presenting the tone 2 days (48 h) after conditioning.
# [7] = Analysis of blood gases during isoflurane anesthesia; type: in vivo, mice; conditions: for pH: n = 6
# Excerpt: A needle was carefully inserted into the heart and blood was extracted into a heparinized syringe. The collected blood was immediately placed on ice and transported to a blood gas analyzer (ABL 700 series, Radiometer, Copenhagen, Denmark).
# [8] = Balance beam and tail flick 1 h after isoflurane; type: in vivo, mice; conditions: 1 h after isoflurane or vehicle
# Description: Mice were gently held by the scruff and allowed free movement of the tail. The tip of the tail was inserted to about 1 cm depth into a beaker of water (49° C.). The latency for the mouse to remove its tail from the water was recorded and used as an indication of nociception. […] Indicators of motor coordination and mobility include the time for the mice to spontaneously cross the beam, and the number of times the hindfoot slipped off the beam. Average values of three repetitions for each mouse were reported.
# [9] = 1 h Iso, vehicle (row isoflurane) or L-655,708
# [10] = 24 h Iso, vehicle (row isoflurane) or L-655,708
# [11] = high-dose experiment: isoflurane + vehicle injection (row isoflurane) or + L-655,708 0.7 mg/kg 30 min before training
# [12] = trained 1 h after isoflurane (1 MAC, 1 h), L-655,708 0.7 mg/kg s.c. or vehicle 10 min before isoflurane
# [13] = trained 24 h after isoflurane, L-655,708 0.7 mg/kg s.c. or vehicle before isoflurane
# T1 sequence (Q8BHJ7 32-463 limits assumed): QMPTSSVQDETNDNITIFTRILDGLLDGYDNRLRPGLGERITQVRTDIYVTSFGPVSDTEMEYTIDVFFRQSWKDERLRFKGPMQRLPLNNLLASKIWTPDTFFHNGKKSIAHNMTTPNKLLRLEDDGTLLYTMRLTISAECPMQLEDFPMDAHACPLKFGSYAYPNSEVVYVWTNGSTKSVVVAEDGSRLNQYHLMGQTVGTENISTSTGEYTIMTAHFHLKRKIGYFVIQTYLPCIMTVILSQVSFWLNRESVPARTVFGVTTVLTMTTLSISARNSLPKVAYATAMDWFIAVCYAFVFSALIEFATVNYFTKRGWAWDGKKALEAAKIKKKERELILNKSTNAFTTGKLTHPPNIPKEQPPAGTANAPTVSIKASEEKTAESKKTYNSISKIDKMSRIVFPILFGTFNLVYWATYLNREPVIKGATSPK
# T1 sequence (P63080 26-473 partner): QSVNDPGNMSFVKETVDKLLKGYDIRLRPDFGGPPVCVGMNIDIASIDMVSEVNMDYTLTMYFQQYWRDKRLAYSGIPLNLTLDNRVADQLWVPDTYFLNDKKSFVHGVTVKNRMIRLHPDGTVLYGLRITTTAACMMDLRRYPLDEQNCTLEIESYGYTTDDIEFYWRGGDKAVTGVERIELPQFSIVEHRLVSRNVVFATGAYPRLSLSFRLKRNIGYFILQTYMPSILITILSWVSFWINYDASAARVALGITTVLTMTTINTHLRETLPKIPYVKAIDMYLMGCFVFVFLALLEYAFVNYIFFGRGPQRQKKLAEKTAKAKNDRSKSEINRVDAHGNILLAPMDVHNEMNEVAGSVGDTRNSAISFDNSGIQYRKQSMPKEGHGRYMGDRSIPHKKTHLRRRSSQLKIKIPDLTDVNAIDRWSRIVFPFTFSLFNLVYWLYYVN
# T1 sequence (P22723 39-474): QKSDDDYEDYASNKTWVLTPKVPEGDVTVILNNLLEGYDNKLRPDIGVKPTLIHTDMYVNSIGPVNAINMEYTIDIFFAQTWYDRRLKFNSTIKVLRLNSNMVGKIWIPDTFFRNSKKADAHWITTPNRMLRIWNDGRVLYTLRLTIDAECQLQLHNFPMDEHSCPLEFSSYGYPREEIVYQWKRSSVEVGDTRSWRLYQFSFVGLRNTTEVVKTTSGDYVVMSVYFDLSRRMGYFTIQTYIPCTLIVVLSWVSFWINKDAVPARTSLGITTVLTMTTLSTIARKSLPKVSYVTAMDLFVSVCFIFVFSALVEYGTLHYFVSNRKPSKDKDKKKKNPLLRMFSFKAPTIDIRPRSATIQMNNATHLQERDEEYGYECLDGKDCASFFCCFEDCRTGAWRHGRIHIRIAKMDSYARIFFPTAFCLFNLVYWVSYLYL
# Sequence of α5GABAARs (Q8BHJ7 32-463 limits assumed): as the sequence (Q8BHJ7 32-463 limits assumed) above
# Sequence of α5GABAARs (P63080 26-473 partner): as the sequence (P63080 26-473 partner) above
# Sequence of α5GABAARs (P22723 39-474): as the sequence (P22723 39-474) above
smiles,measurement,setting,value
"CCOC(=O)c1ncn2c1[C@@H]1CCCN1C(=O)c1cc(OC)ccc1-2 [L-655,708]",time to self-right after the immobilizing dose of isoflurane,[1],151 ± 27 s
same,effect on MAC of isoflurane (in words),"[1]; mouse, in vivo",did not change the MAC value for isoflurane
same,immobilizing dose (MAC value) of isoflurane,[1],1.33±0.02
same,total number of visits to the middle area,[2]; [9],17.3±7.0
same,total number of visits to the middle area,[2]; 1 h O2,19.5±8.5
same,total number of visits to the middle area,[2]; [10],13.6±7.1
same,memory performance of Gabra5−/− mice (in words),[3],did not affect the memory performance of Gabra5−/− mice
same,"discrimination ratio, short-term memory","[3]; Gabra5−/− mice, L-655,708 0.70 mg/kg i.p. 10 min before isoflurane",0.62±0.05
same,"discrimination ratio, short-term memory","[3]; Gabra5−/− mice, L-655,708 0.70 mg/kg i.p. 10 min before vehicle gas",0.64±0.05
same,effect on isoflurane-induced recognition memory deficit (in words),"[3]; L-655,708 0.35 mg/kg 24 h after isoflurane, 30 min before training","restored normal memory performance in groups that were exposed to isoflurane; also recorded: fully reversed short-term memory deficits; also recorded: completely reversed the deficit in recognition memory; also recorded: reverses memory deficits when administered 24 h after exposure to the anesthetic isoflurane; also recorded: fully reversed by L-655,708"
same,effect on isoflurane-induced recognition memory deficit (in words),"[3]; L-655,708 0.7 mg/kg 24 h after isoflurane, 30 min before training",failed to reverse the memory deficit in isoflurane-treated mice
same,prevention of recognition memory deficit (in words),"[3]; L-655,708 0.7 mg/kg before isoflurane",preferred the novel object
same,"discrimination ratio, short-term memory",[3]; [11],0.54±0.05
same,"discrimination ratio, short-term memory","[3]; isoflurane + L-655,708 0.35 mg/kg i.p. 23.5 h after anesthesia, 30 min before training, n=11",0.68±0.03
same,exploratory behavior during training (in words),"[3]; mouse, in vivo",did not influence the amount of time that mice spent with both objects
same,receptor occupancy of the α5GABAA receptor,[4],64%
same,"trace fear memory, freezing scores (in words)","[5]; L-655,708 1 mg/kg i.p. 30 minutes prior to training",demonstrated increased freezing scores
same,"contextual fear memory, freezing score (in words)","[5]; etomidate or etomidate plus L-655,708 30 min prior to training",prevented the etomidate-induced memory deficit
same,effect on memory deficit after isoflurane (in words),[6],"completely prevented memory deficits; also recorded: completely reversed the short-term memory deficit for contextual learning; also recorded: prevented the short-term memory deficit to the tone in mice trained 1 h after isoflurane; also recorded: had no effect on auditory recall in mice conditioned 24 h after exposure to isoflurane; also recorded: completely reversed by pretreatment with L-655,708; also recorded: did not reverse the long-term deficit in cued fear conditioning; also recorded: The impairment was prevented by pre-emptive treatment with L-655,708"
same,effect on memory deficit after isoflurane (in words),[6]; listed as L-655-708,had no effect on freezing in the oxygen-treated mice
same,"freezing score to context, short-term memory",[6]; oxygen-treated mice,80.1±6.4%
same,"freezing score to context, short-term memory",[6]; [12],75.5±8.6%
same,"freezing score to context, short-term memory",[6]; [13],81.9±5.6%
same,"freezing score to auditory tone, short-term memory",[6]; trained 1 h after isoflurane,49.1+8.8%
same,"freezing score to auditory tone, long-term memory",[6]; trained 1 h after isoflurane,41.7±7.3%
same,"freezing score to context, long-term memory",[6]; trained 1 h after isoflurane,72.3±4.9%
same,"freezing score to context, long-term memory",[6]; trained 24 h after isoflurane,75.2±8.3%
FC(F)OC(Cl)C(F)(F)F (stereo not drawn) [isoflurane],time to self-right after the immobilizing dose of isoflurane,[1],153 ± 26 s
same,immobilizing dose (MAC value) of isoflurane,[1],1.33±0.02
same,total number of visits to the middle area,[2]; [9],19.9±4.6
same,total number of visits to the middle area,[2]; [10],18.1±5.3
same,anxiety in the elevated plus maze (in words),"[2]; mouse, in vivo","neither isoflurane, nor L-655,708 had any effect on anxiety on their own"
same,hypoxia (in words),[7]; isoflurane 1 MAC in 30% O2 for 1 h or 5 min,Hypoxia did not occur
same,pCO2,[7]; isoflurane 5 min,48.6 ± 2.02 mmHg
same,pO2,[7]; isoflurane 5 min,142 ± 16 mmHg
same,pH,[7]; isoflurane 5 min,7.28 ± 0.02
same,pCO2,[7]; isoflurane 60 min,54.2 ± 12.3 mmHg
same,pO2,[7]; isoflurane 60 min,193 ± 31 mmHg
same,pH,[7]; isoflurane 60 min,7.23 ± 0.08
same,balance beam crossing times and foot slips (in words),[8],No differences were observed between treatment groups
same,latency to tail flick (in words),[8],No differences were detected in the latency to tail flick
same,"effect of the anesthetic on recognition memory, wild-type mice (in words)",[3],failed to recognize the familiar object and exhibited no preference for the novel object
same,memory performance of Gabra5−/− mice (in words),[3],did not cause significant impairment of memory performance in Gabra5−/− mice
same,"effect of the anesthetic on recognition memory, wild-type mice (in words)",[3]; listed as Isoflurane,demonstrated normal working memory
same,time spent exploring both objects during training,[3]; 72 h after isoflurane,46.65 ± 6.57 s
same,"discrimination ratio, short-term memory","[3]; 72 h after isoflurane, n=10",0.60±0.04
same,"discrimination ratio, short-term memory","[3]; Gabra5−/− mice, 24 h after isoflurane",0.62±0.05
same,time by which short-term memory deficits resolved,[3]; after isoflurane 1.3% 1 h,≤ 72 h
same,"discrimination ratio, short-term memory",[3]; [11],0.54±0.04
same,"discrimination ratio, short-term memory","[3]; prevention experiment, wild-type, isoflurane + vehicle injection, n=11",0.53±0.05
same,time spent exploring sample objects during training,"[3]; short-term memory experiment, 24 h after isoflurane",62.3 ± 9.44 s
same,"discrimination ratio, working memory","[3]; tested 1 min after training, 24 h after isoflurane 1.3% 1 h, n=10",0.67±0.04
same,"discrimination ratio, short-term memory","[3]; tested 1 h after training, 24 h after isoflurane, vehicle injection, wild-type, n=31",0.51±0.03
same,time spent exploring both sample objects during training,"[3]; working memory experiment, 24 h after isoflurane",49.28 ± 9.60 s
same,"mean freezing score, short-term contextual fear conditioning","[6]; independent cohort of 14 mice, 24 h after isoflurane",32.8%
same,"freezing score to context, short-term memory",[6]; [12],54.6±5.9%
same,"freezing score to context, short-term memory",[6]; [13],51.6±8.0%
same,"freezing score to auditory tone, short-term memory",[6]; trained 1 h after isoflurane,35.7±6.43%
same,"freezing score to auditory tone, short-term memory",[6]; trained 24 h after isoflurane,49.1+8.8%
same,"freezing score to auditory tone, long-term memory",[6]; trained 1 h after isoflurane,21.8±23.1%
same,"freezing score to context, long-term memory",[6]; trained 1 h after isoflurane,36.4±26.9%
same,"freezing score to auditory tone, long-term memory",[6]; trained 24 h after isoflurane,41.2±31.2%
same,"freezing score to context, long-term memory",[6]; trained 24 h after isoflurane,48.9±8.6%
